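These data come from cells grown in 96-well plates and exposed to compound for 48 hours at five concentrations. GI50 is the concentration that inhibits growth by half.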 Active and inactive are the calls of the source. No stated cut-off is given here; in the data, active = GI50 up to about 1.1 µM and inactive = higher.
What was measured:
Experiment in all cases: NCI anticancer screen, dose series, 48 h
786-0 = tested on: 786-0
HT-29 = tested on: HT-29
BT-549 = tested on: BT-549
MDA-MB-231 = tested on: MDA-MB-231
K562 = tested on: K562
T47D = tested on: T47D
NCI/ADR-RES = tested on: NCI/ADR-RES
SN12C = tested on: SN12C
NCI-H522 = tested on: NCI-H522
SK-MEL-28 = tested on: SK-MEL-28
CAKI-1 = tested on: CAKI-1
HOP-62 = tested on: HOP-62
OVCAR-8 = tested on: OVCAR-8
IGROV-1 = tested on: IGROV-1
UO-31 = tested on: UO-31
SW-620 = tested on: SW-620
U-251 = tested on: U-251
COLO 205 = tested on: COLO 205
SK-MEL-5 = tested on: SK-MEL-5
RPMI-8226 = tested on: RPMI-8226

SMILES | GI50 (786-0) | GI50 (HT-29) | GI50 (BT-549) | GI50 (MDA-MB-231) | GI50 (K562) | GI50 (T47D) | GI50 (NCI/ADR-RES) | GI50 (SN12C) | GI50 (NCI-H522) | GI50 (SK-MEL-28) | GI50 (CAKI-1) | GI50 (HOP-62) | GI50 (OVCAR-8) | GI50 (IGROV-1) | GI50 (UO-31) | GI50 (SW-620) | GI50 (U-251) | GI50 (COLO 205) | GI50 (SK-MEL-5) | GI50 (RPMI-8226)
O=C(N/N=C/c1ccc(O)cc1)NNCCO | > 100 µM (inactive) | > 100 µM (inactive) | > 100 µM (inactive) | > 100 µM (inactive) | > 100 µM (inactive) | > 100 µM (inactive) | > 100 µM (inactive) | > 100 µM (inactive) | > 100 µM (inactive) | > 100 µM (inactive) | > 100 µM (inactive) | > 100 µM (inactive) | > 100 µM (inactive) | > 100 µM (inactive) | > 100 µM (inactive) | > 100 µM (inactive) | > 100 µM (inactive) | > 100 µM (inactive) | > 100 µM (inactive) | 
CCOC(=O)c1c(SC(=O)c2cc(OC)c(OC)c(OC)c2)n(-c2ccccc2)c(=S)n(-c2ccccc2)c1=O | > 100 µM (inactive) | > 100 µM (inactive) |  | > 100 µM (inactive) | > 100 µM (inactive) | > 100 µM (inactive) | > 100 µM (inactive) | > 100 µM (inactive) | > 100 µM (inactive) | > 100 µM (inactive) | > 100 µM (inactive) | > 100 µM (inactive) | > 100 µM (inactive) | > 100 µM (inactive) |  | > 100 µM (inactive) | > 100 µM (inactive) | > 100 µM (inactive) |  | 
CCOP(=O)(OCC)/C(=C\n1ccc(=O)[nH]c1=S)C(=O)OC | > 100 µM (inactive) | > 100 µM (inactive) |  | > 100 µM (inactive) | > 100 µM (inactive) | > 100 µM (inactive) | > 100 µM (inactive) | > 100 µM (inactive) | > 100 µM (inactive) | > 100 µM (inactive) | > 100 µM (inactive) | > 100 µM (inactive) | > 100 µM (inactive) | > 100 µM (inactive) | > 100 µM (inactive) | > 100 µM (inactive) | > 100 µM (inactive) | > 100 µM (inactive) | > 100 µM (inactive) | > 100 µM (inactive)
O=S1(=O)OCCCOS(=O)(=O)C1Br | > 100 µM (inactive) | > 100 µM (inactive) | > 100 µM (inactive) |  |  | > 100 µM (inactive) | > 100 µM (inactive) | > 100 µM (inactive) | > 100 µM (inactive) | > 100 µM (inactive) | > 100 µM (inactive) | > 100 µM (inactive) | > 100 µM (inactive) |  | > 100 µM (inactive) | > 100 µM (inactive) | > 100 µM (inactive) | > 100 µM (inactive) | > 100 µM (inactive) | > 100 µM (inactive)
O=C(/C=C(\Nc1ccccc1O)c1ccccc1)C(=O)NC12CC3CC(CC(C3)C1)C2 | > 10 µM (inactive) | 2.41 µM (inactive) |  | > 10 µM (inactive) | > 10 µM (inactive) | > 10 µM (inactive) | > 10 µM (inactive) | > 10 µM (inactive) | > 10 µM (inactive) | > 10 µM (inactive) | > 10 µM (inactive) | > 10 µM (inactive) | > 10 µM (inactive) | > 10 µM (inactive) | > 10 µM (inactive) | > 10 µM (inactive) | > 10 µM (inactive) | > 10 µM (inactive) | 7.03 µM (inactive) | 4.99 µM (inactive)
Cn1/c(=N\N=C2\C=C3CCCCC3(C)CC2)sc2ccccc21 (stereo unspecified) | > 100 µM (inactive) | > 100 µM (inactive) | > 100 µM (inactive) | 71.8 µM (inactive) | > 100 µM (inactive) | > 100 µM (inactive) | > 100 µM (inactive) | > 100 µM (inactive) | > 100 µM (inactive) | > 100 µM (inactive) | > 100 µM (inactive) | > 100 µM (inactive) | > 100 µM (inactive) | > 100 µM (inactive) | > 100 µM (inactive) | > 100 µM (inactive) | > 100 µM (inactive) | > 100 µM (inactive) | > 100 µM (inactive) | 
CC(C)(C)OC(=O)NC(Cc1ccc(O)cn1)C(N)=O (stereo unspecified) | > 100 µM (inactive) | > 100 µM (inactive) | > 100 µM (inactive) | > 100 µM (inactive) |  |  | > 100 µM (inactive) | > 100 µM (inactive) | > 100 µM (inactive) | > 100 µM (inactive) | > 100 µM (inactive) | > 100 µM (inactive) | > 100 µM (inactive) | > 100 µM (inactive) | > 100 µM (inactive) | > 100 µM (inactive) | > 100 µM (inactive) | > 100 µM (inactive) | > 100 µM (inactive) | > 100 µM (inactive)
N#Cc1cnc(-n2[nH]c3c(c2=O)CCCC3)[nH]c1=O | 49.2 µM (inactive) | 41.2 µM (inactive) | 73.5 µM (inactive) | 39.9 µM (inactive) | 69.8 µM (inactive) | > 100 µM (inactive) |  | 44.2 µM (inactive) | 57.3 µM (inactive) | 55.2 µM (inactive) | 39.2 µM (inactive) |  |  | > 100 µM (inactive) | 38.5 µM (inactive) | 50 µM (inactive) | 58.6 µM (inactive) | 38.5 µM (inactive) | 48.1 µM (inactive) | 88.3 µM (inactive)
CCOC(=O)N/N=C(\Cc1ccccc1)OCC | > 100 µM (inactive) | > 100 µM (inactive) | > 100 µM (inactive) | > 100 µM (inactive) | > 100 µM (inactive) |  | > 100 µM (inactive) | > 100 µM (inactive) | > 100 µM (inactive) |  |  | > 100 µM (inactive) | > 100 µM (inactive) | > 100 µM (inactive) | > 100 µM (inactive) | > 100 µM (inactive) | > 100 µM (inactive) | > 100 µM (inactive) | > 100 µM (inactive) | > 100 µM (inactive)
CC(C)(C)c1cc(CC2C(=O)c3ccccc3C2=O)cc(C(C)(C)C)c1O | 3.9 µM (inactive) | 3.13 µM (inactive) | 3.45 µM (inactive) | 2.59 µM (inactive) | 3.13 µM (inactive) |  | 2.69 µM (inactive) | 4.11 µM (inactive) | 2.62 µM (inactive) |  | 3.22 µM (inactive) | 2.54 µM (inactive) | 3.05 µM (inactive) | 5.45 µM (inactive) | 2.95 µM (inactive) | 2.51 µM (inactive) | 3.87 µM (inactive) | 3.6 µM (inactive) | 2.7 µM (inactive) | 0.764 µM (active)
Cc1nc(-c2cc3c(ccc4ccccc43)oc2=O)cc2c1c(=O)oc1ccc3ccccc3c12 | > 100 µM (inactive) | > 100 µM (inactive) | > 100 µM (inactive) | > 100 µM (inactive) | > 100 µM (inactive) | > 100 µM (inactive) | > 100 µM (inactive) |  | > 100 µM (inactive) | > 100 µM (inactive) | > 100 µM (inactive) | > 100 µM (inactive) | > 100 µM (inactive) | > 100 µM (inactive) | > 100 µM (inactive) | > 100 µM (inactive) | > 100 µM (inactive) | > 100 µM (inactive) | > 100 µM (inactive) | 
COC(=O)C1=NN2c3ccccc3CN([C@@H](C)c3ccccc3)C(=O)[C@H]2[C@@H]1C | 57.7 µM (inactive) | 31.8 µM (inactive) | 24.7 µM (inactive) | 83 µM (inactive) | 7.13 µM (inactive) | 17 µM (inactive) | 26.1 µM (inactive) | 70.6 µM (inactive) | 21.1 µM (inactive) | 49.2 µM (inactive) | 33.7 µM (inactive) | 52.1 µM (inactive) | 34.7 µM (inactive) |  | 56 µM (inactive) | 43.1 µM (inactive) | 42 µM (inactive) | 18.1 µM (inactive) | 12.6 µM (inactive) | 
CN1CCC/C1=N\C#N | > 100 µM (inactive) | > 100 µM (inactive) |  | > 100 µM (inactive) | > 100 µM (inactive) | > 100 µM (inactive) | > 100 µM (inactive) | > 100 µM (inactive) | > 100 µM (inactive) | > 100 µM (inactive) | > 100 µM (inactive) | > 100 µM (inactive) | > 100 µM (inactive) | > 100 µM (inactive) | > 100 µM (inactive) | > 100 µM (inactive) | > 100 µM (inactive) | > 100 µM (inactive) | > 100 µM (inactive) | > 100 µM (inactive)
O=C(Nc1cccc([N+](=O)[O-])c1)c1nnn(-c2cccc([N+](=O)[O-])c2)c1O | > 100 µM (inactive) | > 100 µM (inactive) |  | > 100 µM (inactive) | > 100 µM (inactive) | > 100 µM (inactive) | > 100 µM (inactive) | > 100 µM (inactive) | > 100 µM (inactive) | > 100 µM (inactive) | > 100 µM (inactive) | > 100 µM (inactive) | > 100 µM (inactive) | > 100 µM (inactive) | 67.5 µM (inactive) | > 100 µM (inactive) | > 100 µM (inactive) | > 100 µM (inactive) | > 100 µM (inactive) | > 100 µM (inactive)
COC1/C=C/O[C@@]2(C)Oc3c(C)c(O)c4c(O)c(cc(O)c4c3C2=O)NC(=O)/C(C)=C\C=C\[C@H](C)C(O)[C@@H](C)[C@@H](O)[C@@H](C)[C@H](OC(C)=O)[C@@H]1C (stereo partly specified) | 15.2 µM (inactive) | 14.9 µM (inactive) | 18.5 µM (inactive) | 23.3 µM (inactive) | 9.89 µM (inactive) | 17.7 µM (inactive) | 32.4 µM (inactive) | 14.1 µM (inactive) | 5.3 µM (inactive) | 22.5 µM (inactive) | 37.9 µM (inactive) | 117 µM (inactive) | 18.7 µM (inactive) | 22.7 µM (inactive) | 51.3 µM (inactive) |  | 44.2 µM (inactive) | 2.65 µM (inactive) | 32.1 µM (inactive) | 

From ChEMBL document CHEMBL1201862, “PubChem BioAssay data set” (2004)
